Test results taken from ChEMBL document CHEMBL3885861, “Open TG-GATES”.

Species: Rattus norvegicus
Experiment: Open TG-GATES - Regimen: Single
Format: toxicity, organism-based, Sprague-Dawley
Parameters: regimen Single, gender Male, age 6 weeks
Conditions: in vivo, po, route gavage; for APTT / Bas / Eos / Fbg / Hb / Ht / Lym / MCH / MCHC / MCV / Mono / Neu / PT / Plat / RBC / Ret / WBC: tissue Blood; for KIDNEY_L / KIDNEY_R / KIDNEY_TOTAL: tissue Kidney; for LIVER: tissue Liver; for A/G / ALP / ALT / AST / BUN / CRE / Ca / Cl / DBIL / GLC / IP / K / LDH / Na / PL / RALB / TBIL / TC / TG / TP / gamma-GTP: tissue Plasma
[1] = 0 mg/kg, 3 h, dose level Control
[2] = 0 mg/kg, 6 h, dose level Control
[3] = 0 mg/kg, 9 h, dose level Control
[4] = 0 mg/kg, 24 h, dose level Control

## CN1C(=O)CCS(=O)(=O)C1c1ccc(Cl)cc1 (centres undefined) [CHLORMEZANONE]
[1]
  TERMINAL_BW: 226.1 g
  APTT: 17 s
  Bas: 0%
  Eos: 0.8%
  Fbg: 315.6 mg/dL
  Hb: 13.7 g/dL
  Ht: 40.3%
  Lym: 80.4%
  MCH: 21.7 pg
  MCHC: 33.9%
  MCV: 64.1 fL
  Mono: 3%
  Neu: 15%
  PT: 13.1 s
  Plat: 122.7 x10_4/uL
  RBC: 629.8 x10_4/ul
  Ret: 7.8%
  WBC: 78.6 x10_2/uL
  KIDNEY_L: 1 g
  KIDNEY_R: 1 g
  KIDNEY_TOTAL: 2 g
  LIVER: 10.3 g
  A/G: 0.9
  ALP: 1820.8 IU/L
  ALT: 43.6 IU/L
  AST: 67.4 IU/L
  BUN: 10.2 mg/dL
  CRE: 0.1 mg/dL
  Ca: 11.5 mg/dL
  Cl: 106.2 meq/L
  DBIL: 0.036 mg/dL
  GLC: 182.2 mg/dL
  IP: 9.5 mg/dL
  K: 4.2 meq/L
  LDH: 58.2 IU/L
  Na: 140.2 meq/L
  PL: 145.2 mg/dL
  RALB: 2.7 g/dL
  TBIL: 0.044 mg/dL
  TC: 73.8 mg/dL
  TG: 108.2 mg/dL
  TP: 5.7 g/dL
  gamma-GTP: 1 IU/L
[2]
  TERMINAL_BW: 224.1 g
  APTT: 15.7 s
  Bas: 0%
  Eos: 1%
  Fbg: 310.2 mg/dL
  Hb: 13.7 g/dL
  Ht: 40.5%
  Lym: 75%
  MCH: 21.9 pg
  MCHC: 33.8%
  MCV: 65 fL
  Mono: 3.4%
  Neu: 19.8%
  PT: 13.2 s
  Plat: 113.5 x10_4/uL
  RBC: 622.8 x10_4/ul
  Ret: 7.8%
  WBC: 97 x10_2/uL
  KIDNEY_L: 0.9 g
  KIDNEY_R: 0.9 g
  KIDNEY_TOTAL: 1.8 g
  LIVER: 9.3 g
  A/G: 0.9
  ALP: 1407 IU/L
  ALT: 40.8 IU/L
  AST: 78 IU/L
  BUN: 10.4 mg/dL
  CRE: 0.2 mg/dL
  Ca: 11.6 mg/dL
  Cl: 107 meq/L
  DBIL: 0.02 mg/dL
  GLC: 180.2 mg/dL
  IP: 9.8 mg/dL
  K: 4.3 meq/L
  LDH: 57.8 IU/L
  Na: 141.8 meq/L
  PL: 145.6 mg/dL
  RALB: 2.7 g/dL
  TBIL: 0.04 mg/dL
  TC: 85.2 mg/dL
  TG: 54.4 mg/dL
  TP: 5.7 g/dL
  gamma-GTP: 1.4 IU/L
[3]
  TERMINAL_BW: 227.6 g
  APTT: 15.1 s
  Bas: 0%
  Eos: 1%
  Fbg: 331.4 mg/dL
  Hb: 13.4 g/dL
  Ht: 39.9%
  Lym: 74.4%
  MCH: 21.2 pg
  MCHC: 33.5%
  MCV: 63.1 fL
  Mono: 3.4%
  Neu: 20.6%
  PT: 13.2 s
  Plat: 116.8 x10_4/uL
  RBC: 631.4 x10_4/ul
  Ret: 7.5%
  WBC: 79.8 x10_2/uL
  KIDNEY_L: 0.9 g
  KIDNEY_R: 0.9 g
  KIDNEY_TOTAL: 1.8 g
  LIVER: 8.6 g
  A/G: 0.9
  ALP: 1793 IU/L
  ALT: 38.6 IU/L
  AST: 67.8 IU/L
  BUN: 10.8 mg/dL
  CRE: 0.2 mg/dL
  Ca: 11.1 mg/dL
  Cl: 105 meq/L
  DBIL: 0.022 mg/dL
  GLC: 192.6 mg/dL
  IP: 11.3 mg/dL
  K: 3.8 meq/L
  LDH: 51.4 IU/L
  Na: 143 meq/L
  PL: 132 mg/dL
  RALB: 2.6 g/dL
  TBIL: 0.044 mg/dL
  TC: 74.8 mg/dL
  TG: 52.6 mg/dL
  TP: 5.5 g/dL
  gamma-GTP: 1 IU/L
[4]
  TERMINAL_BW: 235.8 g
  APTT: 17.4 s
  Bas: 0.2%
  Eos: 0.8%
  Fbg: 283.8 mg/dL
  Hb: 13.4 g/dL
  Ht: 39.1%
  Lym: 78.8%
  MCH: 21.6 pg
  MCHC: 34.4%
  MCV: 62.9 fL
  Mono: 2.8%
  Neu: 17%
  PT: 13 s
  Plat: 115.7 x10_4/uL
  RBC: 621 x10_4/ul
  Ret: 7.2%
  WBC: 77.6 x10_2/uL
  KIDNEY_L: 1 g
  KIDNEY_R: 1 g
  KIDNEY_TOTAL: 2 g
  LIVER: 10.6 g
  A/G: 0.9
  ALP: 1848.2 IU/L
  ALT: 51.8 IU/L
  AST: 87 IU/L
  BUN: 16.4 mg/dL
  CRE: 0.2 mg/dL
  Ca: 11.5 mg/dL
  Cl: 105.2 meq/L
  DBIL: 0.022 mg/dL
  GLC: 193.4 mg/dL
  IP: 8.1 mg/dL
  K: 4.3 meq/L
  LDH: 69.4 IU/L
  Na: 142 meq/L
  PL: 141.6 mg/dL
  RALB: 2.7 g/dL
  TBIL: 0.028 mg/dL
  TC: 77.4 mg/dL
  TG: 91.8 mg/dL
  TP: 5.7 g/dL
  gamma-GTP: 1 IU/L
50 mg/kg, 3 h, dose level Low
  TERMINAL_BW: 228.4 g
  APTT: 16.7 s
  Bas: 0%
  Eos: 1%
  Fbg: 319.2 mg/dL
  Hb: 13.2 g/dL
  Ht: 39.3%
  Lym: 73.8%
  MCH: 21.6 pg
  MCHC: 33.6%
  MCV: 64.3 fL
  Mono: 4%
  Neu: 20.6%
  PT: 13 s
  Plat: 111.8 x10_4/uL
  RBC: 611.6 x10_4/ul
  Ret: 9.4%
  WBC: 84.7 x10_2/uL
  KIDNEY_L: 0.9 g
  KIDNEY_R: 0.9 g
  KIDNEY_TOTAL: 1.9 g
  LIVER: 10.4 g
  A/G: 0.9
  ALP: 1492 IU/L
  ALT: 52.6 IU/L
  AST: 80.2 IU/L
  BUN: 8.8 mg/dL
  CRE: 0.2 mg/dL
  Ca: 11.6 mg/dL
  Cl: 105.2 meq/L
  DBIL: 0.018 mg/dL
  GLC: 187 mg/dL
  IP: 9.6 mg/dL
  K: 4 meq/L
  LDH: 60.2 IU/L
  Na: 141.6 meq/L
  PL: 155 mg/dL
  RALB: 2.7 g/dL
  TBIL: 0.046 mg/dL
  TC: 83.6 mg/dL
  TG: 75.4 mg/dL
  TP: 5.7 g/dL
  gamma-GTP: 1 IU/L
50 mg/kg, 6 h, dose level Low
  TERMINAL_BW: 227.2 g
  APTT: 15 s
  Bas: 0%
  Eos: 0.8%
  Fbg: 321.2 mg/dL
  Hb: 13.8 g/dL
  Ht: 40.9%
  Lym: 76.8%
  MCH: 21.6 pg
  MCHC: 33.7%
  MCV: 64.2 fL
  Mono: 3.4%
  Neu: 18.2%
  PT: 13.2 s
  Plat: 115.1 x10_4/uL
  RBC: 637.2 x10_4/ul
  Ret: 7.3%
  WBC: 83.9 x10_2/uL
  KIDNEY_L: 0.9 g
  KIDNEY_R: 1 g
  KIDNEY_TOTAL: 1.9 g
  LIVER: 9.5 g
  A/G: 0.9
  ALP: 1829.6 IU/L
  ALT: 38.6 IU/L
  AST: 71.4 IU/L
  BUN: 8.8 mg/dL
  CRE: 0.2 mg/dL
  Ca: 11.6 mg/dL
  Cl: 107 meq/L
  DBIL: 0.016 mg/dL
  GLC: 189.8 mg/dL
  IP: 10.3 mg/dL
  K: 4.1 meq/L
  LDH: 56.8 IU/L
  Na: 143.2 meq/L
  PL: 153 mg/dL
  RALB: 2.7 g/dL
  TBIL: 0.038 mg/dL
  TC: 78 mg/dL
  TG: 68.4 mg/dL
  TP: 5.7 g/dL
  gamma-GTP: 1.2 IU/L
50 mg/kg, 9 h, dose level Low
  TERMINAL_BW: 227.8 g
  APTT: 14.1 s
  Bas: 0%
  Eos: 0.8%
  Fbg: 351 mg/dL
  Hb: 13.4 g/dL
  Ht: 39.3%
  Lym: 77.8%
  MCH: 22.3 pg
  MCHC: 34.1%
  MCV: 65.5 fL
  Mono: 2.2%
  Neu: 18%
  PT: 13.5 s
  Plat: 121.2 x10_4/uL
  RBC: 601.6 x10_4/ul
  Ret: 8%
  WBC: 76.9 x10_2/uL
  KIDNEY_L: 1 g
  KIDNEY_R: 0.9 g
  KIDNEY_TOTAL: 1.9 g
  LIVER: 9.2 g
  A/G: 0.9
  ALP: 1623.2 IU/L
  ALT: 34.4 IU/L
  AST: 71.6 IU/L
  BUN: 9.4 mg/dL
  CRE: 0.2 mg/dL
  Ca: 11.2 mg/dL
  Cl: 106.4 meq/L
  DBIL: 0.02 mg/dL
  GLC: 191.4 mg/dL
  IP: 11.9 mg/dL
  K: 4 meq/L
  LDH: 57.6 IU/L
  Na: 143.8 meq/L
  PL: 121.4 mg/dL
  RALB: 2.6 g/dL
  TBIL: 0.038 mg/dL
  TC: 67.2 mg/dL
  TG: 50.4 mg/dL
  TP: 5.5 g/dL
  gamma-GTP: 1 IU/L
50 mg/kg, 24 h, dose level Low
  TERMINAL_BW: 234.7 g
  APTT: 16.1 s
  Bas: 0%
  Eos: 0.8%
  Fbg: 278.2 mg/dL
  Hb: 13.6 g/dL
  Ht: 39.7%
  Lym: 75%
  MCH: 21.7 pg
  MCHC: 34.4%
  MCV: 63.3 fL
  Mono: 3.4%
  Neu: 20.2%
  PT: 13 s
  Plat: 113.6 x10_4/uL
  RBC: 626.8 x10_4/ul
  Ret: 7.6%
  WBC: 72.4 x10_2/uL
  KIDNEY_L: 1.1 g
  KIDNEY_R: 1 g
  KIDNEY_TOTAL: 2.1 g
  LIVER: 11.3 g
  A/G: 0.9
  ALP: 1615.6 IU/L
  ALT: 45 IU/L
  AST: 77.4 IU/L
  BUN: 14.8 mg/dL
  CRE: 0.2 mg/dL
  Ca: 11.1 mg/dL
  Cl: 106.2 meq/L
  DBIL: 0.02 mg/dL
  GLC: 182.2 mg/dL
  IP: 7.4 mg/dL
  K: 4.2 meq/L
  LDH: 83 IU/L
  Na: 142 meq/L
  PL: 137.8 mg/dL
  RALB: 2.6 g/dL
  TBIL: 0.024 mg/dL
  TC: 80.4 mg/dL
  TG: 92.4 mg/dL
  TP: 5.6 g/dL
  gamma-GTP: 1.2 IU/L
